Reference: US10925858B2, “S-nitrosoglutathione (GSNO) and GSNO reductase inhibitors for use in therapy” (MUSC FOUNDATION FOR RESEARCH DEVELOPMENT, priority 2017, dated 2021)

Key:
[1] = system: 3-nitrotyrosine; test: Nitrotyrosine levels in spinal cords of EAE mice, Western; assay type: in vivo, C57BL/6J mice; details: day 24 post-immunization; GSNO 1 mg/kg/day or FeTPPS 30 mg/kg/day i.p.
Experimental: Western immunoblot analysis was performed by standard method using 50 μg of cell lysates. Following the SDS-PAGE electrophoresis, proteins were transferred from the gel onto the Polyvinylidene fluoride membrane (GE Healthcare Life Sciences, Marlborough, Mass.). […]
EAE was induced as described previously (Nath et al., 2009). […] The group size was determined by power analysis based on our previous data (Nadi et al., 2009). […] Clinical signs of EAE were scored in animal facility in a blinded fashion to experimenter between 2 and 4 pm daily by examiners blinded to experimental treatments using the following scale: 0=no clinical signs of disease; 1=limp tail or waddling gait with tail tonicity; 2=waddling gait with limp tail (ataxia); 2.5=ataxia with partial limb paralysis; 3=full paralysis of one limb; 3.5=full paralysis of one limb with partial paralysis of second limb; 4=full paralysis of two limbs; 4.5=moribund stage; 5=death. […]

[2] = system: intracellular Ca^2+ ([Ca^2+]i) influx; test: Assay for intracellular Ca2+ influx in thrombin treated hBMVECs; assay type: cell-based, human; details: thrombin 0.1 unit/ml; L-NIO or FeTPPS 10 μM; GSNO or SIN-1 various concentrations
Experimental: Cell culture: Primary human brain microvascular endothelial cells (hBMVECs) were purchased from Angio-Proteomie (Cat #: cAP-0002, Atlanta, Ga.). The cells were cultured in cell culture flasks or plates precoated with Quick Coating Solution (Angio-Proteomie; Cat #: cAP-01) and maintained in Endothelial Growth Medium (Angio-Proteomie; Cat #: cAP-02) at 37° C. under 5% CO2/95% air. When the cells were almost confluent, the medium was replaced with endothelial basal medium (Angio-Proteomie; Cat #: cAP-03) containing 0.5% fetal bovine serum (FBS; Life Technologies, Grand Island, N.Y.) about 8-12 hours before the experiment. No institutional approval was required for this study. The study was not pre-registered. Intracellular Ca^2+ concentration ([Ca^2+]i) was measured with Fluo-4 Direct Calcium Assay Kit (Thermo Fisher Scientific, Cat #: F10471, Grand Island, N.Y.). Briefly, culture medium in the 96-well plate was replaced with a Ca^2+ sensitive dye Fluo-4 in an endothelial basal medium. After 30 min incubation, the dye was removed and cells were incubated with the original medium with or without the drugs at 37° C. for 15 min. Following thrombin treatment, time course changes of fluorescent intensity were quantified using a CLARIOstar multi-well fluorometer (BMG Labtech, Cary, N.C.).

[3] = system: RhoA; test: RhoA activity assay in thrombin treated hBMVECs; assay type: cell-based, human; details: thrombin 0.1 unit/ml 5 min; L-NIO or FeTPPS 10 μM pretreated 30 min; GSNO or SIN-1 various concentrations pretreated 2 hr
Experimental: Cell culture: Primary human brain microvascular endothelial cells (hBMVECs) were purchased from Angio-Proteomie (Cat #: cAP-0002, Atlanta, Ga.). The cells were cultured in cell culture flasks or plates precoated with Quick Coating Solution (Angio-Proteomie; Cat #: cAP-01) and maintained in Endothelial Growth Medium (Angio-Proteomie; Cat #: cAP-02) at 37° C. under 5% CO2/95% air. When the cells were almost confluent, the medium was replaced with endothelial basal medium (Angio-Proteomie; Cat #: cAP-03) containing 0.5% fetal bovine serum (FBS; Life Technologies, Grand Island, N.Y.) about 8-12 hours before the experiment. No institutional approval was required for this study. The study was not pre-registered.
RhoA activity in hBMVECs was analyzed by RhoA Activation Assay Kit (Abeam Cat #: ab211164, Cambridge, Mass.). Briefly, following drug treatments, the cells were lysed with 1× Assay buffer provided in the kit. Lysates were centrifuged (14,000×g for 10 sec), and supernatants were incubated with agarose beads coupled to GST-Rhotekin-Rho binding domain (RBD) for 2 h at 4° C. Beads were then washed with 1× Assay buffer and GTP-bound RhoA was eluted with 2×SDS-PAGE sample buffer. Amounts of active (GTP-bound) RhoA were determined by Western blot analysis using antibody specific to RhoA (Abeam).

SMILES	EAE-induced nitrotyrosine levels in spinal cords [1]	thrombin-induced intracellular Ca2+ influx [2]	thrombin-induced RhoA activation [3]
N[C@@H](CCC(=O)N[C@@H](CSN=O)C(=O)NCC(=O)O)C(=O)O [GSNO, S-nitrosoglutathione]	significantly decreased	inhibited	inhibited
Cl.O=S(=O)([O-])c1ccc(-c2c3nc(c(-c4ccc(S(=O)(=O)O)cc4)c4ccc([nH]4)c(-c4ccc(S(=O)(=O)O)cc4)c4nc(c(-c5ccc(S(=O)(=O)O)cc5)c5ccc2[nH]5)C=C4)C=C3)cc1.[Fe] [FeTPPS, 5,10,15,20-Tetrakis(4-sulfonatophenyl)porphyrinato Iron (III), Cl, reference compound]	significantly decreased	had not effect	decreased
